Results: patent US12116636B2, “Methods for evaluating tumor cell spheroids using 3D microfluidic cell culture device” (Dana-Farber Cancer Institute, Inc., priority 2017, dated 2024)

How the values were obtained:
off-target kinases = experiment: SelectScreen Kinase Profiling, biochemical single point inhibition; settings: 1000 μM
Procedure: Biochemical single point inhibition and IC50 concentrations for TBK1, IKKε (IKBKE), and off-target kinases were determined at ThermoFisher Scientific using SelectScreen Kinase Profiling Services (Madison, WI, USA) (Tables S4A and S4B-1-7). To determine cellular potency, the human colorectal cancer carcinoma cell line HCT116 (ATCC, Manassas, VA) was maintained in T175 flasks in complete RPMI medium; RPMI 1640 supplemented with 10% FBS, 1× Penicillin-Streptomycin solution and 1× MEM (non-essential amino acids). HCT116 cells were grown to 90-95% confluency in T175 flasks containing complete RPMI medium and transfected in bulk using Lipofectamine 2000 (Invitrogen, Carlsbad, CA) with 70 μg of ISG54-luciferase reporter plasmid (Elim Biopharmaceuticals Inc., Hayward, CA). The reporter plasmid contains a luciferase gene expression cassette under the transcriptional regulation of the promoter of the human interferon stimulated gene 54 (ISG54). Transfection of the cells was allowed to take place for 6 hours, after which the cells were harvested by treatment with 0.25% trypsin EDTA (Corning Inc., Corning, NY). Trypsinized cells were added to 384-well poly-d-lysine treated black clear bottom tissue culture assay plates (Greiner Bio-One GmbH, Kremsmunster, Austria) at a density of 20,000 cells/well in 80 μL of complete RPMI medium and incubated overnight. After 16-18 hours post-transfection, the assay plates were washed with PBS (Corning Inc., Corning, NY), followed by addition of 80 μL/well of serum-free RPMI 1640 medium containing 1× Penicillin-Streptomycin solution, 1× MEM and 350 nL of DMSO or titrations of Compound 1. Compound 1 titrations were generated by 1.5-fold dilution steps in two overlapping serial dilution series to generate a 40-point compound dose range. After incubation at 37° C. for 1 hour, the cells were stimulated with Poly(I:C) (InvivoGen, San Diego, CA) at a final concentration of 15 μg/mL in Optimem media (Life Technologies, Rockville, MD). The assay plates were incubated for 5 hours at 37° C., followed by addition of One-Glo luciferase firefly reagent (Promega, Madison, WI) at 1:1 volume/well and luminescence was measured in an EnVision Multilabel Plate Reader (PerkinElmer, Santa Clara, CA). The EC50 values were calculated from the fit of the dose-response curves to a four-parameter equation. All EC50 values represent geometric mean values of a minimum of four determinations.

[1] = test system: human CD4+ and CD8+ T cells; experiment: IFNγ in supernatant of anti-CD3/anti-CD28 stimulated T cells; format: cell-based; settings: dose-titration, 96 hours
Procedure: Freshly isolated human CD4+ and CD8+ T cells were obtained from AllCells (Alameda, CA, USA). Cells were spun down and resuspended in serum free Xvivol5 media (Lonza Walkersville, Inc., Chicago, IL, USA) supplemented with 5 ng/mL […] and incubated overnight at 37° C. Cells were plated on anti-CD3 coated plates (5 μg/mL OKT3, eBioscience™, Dallas, TX, USA, overnight) with 2 μg/mL anti-CD28 (eBioscience™, Dallas, TX, USA). Cells are treated in replicate plates with a dose-titration of Compound 1 for 24 hours for IL-2 and 96 hours for IFNT. IL-2 and IFNγ in the supernatant were measured using single- or multi-plex immunoassay (Mesoscale Discovery, Rockville, MD, USA). Jurkat T cell leukemia cells (clone E61 obtained from ATCC) plated on anti-CD3 coated plates were treated with a dose titration of Compound 1 for 24 hours. IL-2 in the supernatant was measured as described above.

MC38 allograft = experiment: In vivo Compound 1 combination treatment, allograft; design: species or system B6 mice; settings: Cmpd1 + αPD-L1; not significant vs single-agent PD-L1
MB49 allograft = experiment: as above; design: species or system B6 mice; settings: Cmpd1 + αPD-L1
B16F10 lung metastases = experiment: B16F10 tail vein injection model, lung metastases; format: in vivo, mice; settings: Compound 1 40 mg/kg daily 13 days ± anti-PD-L1 10 mg/kg
Procedure: Combination studies were performed by vivoPharm (Hummelstown, PA, USA). All procedures used in the performance of these studies were carried out in accordance with vivoPharm's Standard Operating Procedures, with particular reference to US_SOPvP_EF0314 “General Procedures for Efficacy Studies.” CT26 colon carcinoma cells (1×10^6 cells/mouse in 100 μL, passage 2-3) were re-suspended in serum-free DMEM and implanted in the upper right flank of 11-12 week old female Balb/c mice (Charles River Laboratories). Mice were randomized into four groups of 10 using a matched pair distribution method based on tumor size for CT26. Treatment was initiated 12 days post-inoculation with mean tumor volume at start of dosing of 125.85 mm^3. Vehicle or Compound 1 (40 mg/kg) was administered by oral gavage daily for 26 days and isotype control or a reverse chimera anti-PD-L1 cloned from literature reports (e.g., Deng, R. et al. MAbs (2016), the content of which is incorporated herein by reference in entirety) and placed into a mouse IgG1 framework (10 mg/kg) was administered every 5 days for a total of six doses. Investigators were not blinded to treatment groups. […] Mice were scarified on Day 13 and lung metastases were quantified (small≤1 mm, medium>1 mm and ≤3 mm, large>3 mm). No large lung metastases were detected.

[2] = EGFR (ErbB1) d746-750 (mutant), LanthaScreen Binding
[3] = PRKCB2 (PKC beta II), ATP Km app, ZLYTE
[4] = TEK (TIE2) mutant (mutation name not given), LanthaScreen

## N#Cc1cc(-c2ncnc(Nc3ccc(N4CCN(C5COC5)CC4)cc3)n2)ccc1OC1CCOCC1 [Compound 1, 5-(4-((4-(4-(oxetan-3-yl)piperazin-1-yl)phenyl)amino)-1,3,5-triazin-2-yl)-2-((tetrahydro-2H-pyran-4-yl)oxy)benzonitrile]
off-target kinases; [2]
  % Inhibition 1: 14%
  % Inhibition 2: 13%
  % Inhibition Avg: 14%
off-target kinases; FLT3 ITD, LanthaScreen Binding
  % Inhibition 1: 64%
  % Inhibition 2: 62%
  % Inhibition Avg: 63%
off-target kinases; FYN A, LanthaScreen Binding
  % Inhibition 1: 16%
  % Inhibition Avg: 18%
off-target kinases; LYN B, ATP Km app, ZLYTE
  % Inhibition 1: 56%
  % Inhibition 2: 50%
  % Inhibition Avg: 53%
off-target kinases; MAP3K7/MAP3K7IP1 (TAK1-TAB1), LanthaScreen Binding
  % Inhibition 2: 22%
off-target kinases; [3]
  % Inhibition 1: 12%
  % Inhibition 2: 8%
  % Inhibition Avg: 10%
off-target kinases; SRC N1, ATP Km app, ZLYTE
  % Inhibition 1: 54%
  % Inhibition 2: 60%
  % Inhibition Avg: 57%
off-target kinases; [4]
  % Inhibition 1: 40%
  % Inhibition 2: 41%
  % Inhibition Avg: 41%
[1]
  secretion of IFN-7 from purified CD4+ and CD8+ T cells: enhanced secretion
MC38 allograft
  in vivo survival, MC38 model, combination treatment: enhanced
MB49 allograft
  response to combination treatment in vivo, MB49 bladder carcinoma: enhanced response
B16F10 lung metastases
  sensitization of B16F10 tail vein injection model (lung metastases): could not be sensitized
